According to patent publication US20260216368A1, “BIS-ESTER AND AMIDE CATIONIC LIPIDS” (SANOFI PASTEUR INC., priority 2022, published 2026):

Tested on: Human erythropoietin (hEPO) levels in sera
Assay: Delivery of hEPO mRNA by intramuscular administration of lipid nanoparticles; serum hEPO by ELISA
Assay type: in vivo, Mouse
Settings: third occasion; serum, 6 hours post dose; 0.1 μg/animal hEPO mRNA LNP, IM, mice, n=4
Description: WO2022/099003 A1 describes an in vivo assay for intramuscular administration (e.g. on page 46, paragraph [00206]). Further details of the intramuscular experiment performed in this application are provided below.
Treatment Regimen: On Day 1, animals from Groups 1-8 were dosed via intramuscular injection while under light isoflurane anesthesia according to the study design table above. Animals in Groups 2-8 were injected with EPO in the right leg only. Group 1 animals received saline control.
Interim Sample Collections: Interim whole blood (~50 μL) was collected by tail snip or saphenous vein at 6 hours post dose administration (±5%). Blood samples were collected into serum separator tubes, allowed to clot at room temperature for at least 10 minutes, centrifuged at ambient temperature at minimum 1000 g for 10 minutes and the serum was extracted. All serum samples were stored at nominally −70° C. until analysis hEPO by the Testing Facility. The results of the EPO analysis were included in the Data Submission.
Terminal Blood Collections: Whole blood was collected via cardiac puncture into serum separator tube, allowed to clot at room temperature for at least 10 minutes, centrifuged at ambient temperature at minimum 1000 g for 10 minutes and the serum was extracted. Serum samples were stored at nominally −70° C. until analyzed for hEPO by the Test Facility.
ELISA Assay: Human erythropoietin (hEPO) levels in sera samples were determined by ELISA kit (R&D systems, Cat #DEP-00) according to the manufactory instruction and the results were included in the Data Submission. The “shaker” protocol was used. The serum samples were diluted between 1:40 and 1:100.
The ability of the further exemplary lipid nanoparticles in Example 54 to deliver hEPO mRNA by intramuscular administration was tested in accordance with the experimental protocol set out in Example 52.

For `CCCCCCCCCCC(O)CN(CCCOC(=O)[C@H](Cc1ccc(O)cc1)NC(=O)CCCN(CC(O)CCCCCCCCCC)CC(O)CCCCCCCCCC)CC(O)CCCCCCCCCC` (stereo partly drawn) [Compound XCIX, 3-(bis(2-hydroxydodecyl)amino)propyl (4-(bis(2-hydroxydodecyl)amino)butanoyl)-L-tyrosinate], the “hEPO 6 Hr (ng/mL) Mean” value was 38.1 ng/mL.
